{
  "source": "paper PMC8333425",
  "about": "“Discovery of a dual Ras and ARF6 inhibitor from a GPCR endocytosis screen” (Nature Communications, 2021)",
  "assay_in_all_cases": "KINOMEscan kinase binding assay",
  "key": {"[1]": {"molecular_target": "T1, 384 kinases from the human genome (Homo sapiens, UniProt O60331)", "T1 construct": "purchased Eurofin/DiscoverX", "T1 sequence (O60331 whole entry)": "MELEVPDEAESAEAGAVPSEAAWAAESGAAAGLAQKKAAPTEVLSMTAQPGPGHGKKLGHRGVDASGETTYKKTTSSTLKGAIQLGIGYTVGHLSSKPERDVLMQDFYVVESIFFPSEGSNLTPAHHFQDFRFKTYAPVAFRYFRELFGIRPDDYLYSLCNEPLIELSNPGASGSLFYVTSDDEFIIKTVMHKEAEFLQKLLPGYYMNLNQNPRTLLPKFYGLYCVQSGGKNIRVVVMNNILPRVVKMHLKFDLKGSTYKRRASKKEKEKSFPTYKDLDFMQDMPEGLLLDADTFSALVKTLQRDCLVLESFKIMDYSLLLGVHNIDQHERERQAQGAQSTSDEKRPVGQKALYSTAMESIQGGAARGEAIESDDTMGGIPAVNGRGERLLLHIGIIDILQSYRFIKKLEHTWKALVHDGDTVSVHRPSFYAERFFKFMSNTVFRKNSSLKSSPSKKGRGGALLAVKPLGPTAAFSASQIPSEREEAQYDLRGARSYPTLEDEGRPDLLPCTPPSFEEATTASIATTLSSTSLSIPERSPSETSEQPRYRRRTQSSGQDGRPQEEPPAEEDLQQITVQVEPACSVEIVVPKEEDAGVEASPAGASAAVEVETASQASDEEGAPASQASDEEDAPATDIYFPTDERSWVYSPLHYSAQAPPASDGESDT", "details": "kinase PIP5K1C (Entrez PIP5K1C)", "summary_of_the_method": "(§1)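 Competition binding (KINOMEscan) across 384 human kinases with compound at 10 µM. Ligand binding was expressed relative to DMSO (100%) as the average of duplicates from one experiment. S(10) selectivity score was derived.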"}, "[2]": {"molecular_target": "T2, 384 kinases from the human genome (Homo sapiens, UniProt Q99558)", "T2 construct": "purchased Eurofin/DiscoverX", "T2 sequence (Q99558 whole entry)": "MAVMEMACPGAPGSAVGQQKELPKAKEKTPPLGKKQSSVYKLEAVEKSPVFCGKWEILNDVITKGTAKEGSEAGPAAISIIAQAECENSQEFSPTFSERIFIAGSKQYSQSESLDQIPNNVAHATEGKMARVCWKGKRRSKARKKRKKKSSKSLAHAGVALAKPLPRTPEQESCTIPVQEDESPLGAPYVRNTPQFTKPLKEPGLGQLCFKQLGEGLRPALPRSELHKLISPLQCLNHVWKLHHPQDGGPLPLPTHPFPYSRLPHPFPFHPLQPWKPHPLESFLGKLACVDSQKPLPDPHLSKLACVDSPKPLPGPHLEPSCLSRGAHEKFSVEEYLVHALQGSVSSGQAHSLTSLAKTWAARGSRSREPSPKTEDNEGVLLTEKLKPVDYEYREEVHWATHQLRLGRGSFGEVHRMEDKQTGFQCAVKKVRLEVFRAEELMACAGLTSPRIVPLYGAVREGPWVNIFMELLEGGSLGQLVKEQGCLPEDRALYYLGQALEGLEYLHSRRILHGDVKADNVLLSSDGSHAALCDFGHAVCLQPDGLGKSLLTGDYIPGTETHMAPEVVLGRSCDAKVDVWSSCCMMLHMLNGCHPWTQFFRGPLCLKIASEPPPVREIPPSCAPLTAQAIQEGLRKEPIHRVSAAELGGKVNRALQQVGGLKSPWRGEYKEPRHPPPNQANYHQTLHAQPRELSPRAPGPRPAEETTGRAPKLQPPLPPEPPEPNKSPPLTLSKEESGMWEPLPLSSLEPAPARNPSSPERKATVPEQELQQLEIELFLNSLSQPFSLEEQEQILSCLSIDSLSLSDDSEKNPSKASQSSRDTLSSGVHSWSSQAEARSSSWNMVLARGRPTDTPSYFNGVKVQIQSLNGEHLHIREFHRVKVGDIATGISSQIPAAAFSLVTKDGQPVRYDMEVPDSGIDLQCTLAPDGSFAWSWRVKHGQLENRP", "details": "kinase NIK (Entrez MAP3K14)", "summary_of_the_method": "as §1"}, "[3]": {"molecular_target": "T3, 384 kinases from the human genome (Homo sapiens, UniProt P53778)", "T3 construct": "purchased Eurofin/DiscoverX", "details": "kinase p38-gamma (Entrez MAPK12)", "summary_of_the_method": "as §1"}, "[4]": {"molecular_target": "T4, 384 kinases from the human genome (Homo sapiens, UniProt Q8IVH8)", "T4 construct": "purchased Eurofin/DiscoverX", "T4 sequence (Q8IVH8 whole entry)": "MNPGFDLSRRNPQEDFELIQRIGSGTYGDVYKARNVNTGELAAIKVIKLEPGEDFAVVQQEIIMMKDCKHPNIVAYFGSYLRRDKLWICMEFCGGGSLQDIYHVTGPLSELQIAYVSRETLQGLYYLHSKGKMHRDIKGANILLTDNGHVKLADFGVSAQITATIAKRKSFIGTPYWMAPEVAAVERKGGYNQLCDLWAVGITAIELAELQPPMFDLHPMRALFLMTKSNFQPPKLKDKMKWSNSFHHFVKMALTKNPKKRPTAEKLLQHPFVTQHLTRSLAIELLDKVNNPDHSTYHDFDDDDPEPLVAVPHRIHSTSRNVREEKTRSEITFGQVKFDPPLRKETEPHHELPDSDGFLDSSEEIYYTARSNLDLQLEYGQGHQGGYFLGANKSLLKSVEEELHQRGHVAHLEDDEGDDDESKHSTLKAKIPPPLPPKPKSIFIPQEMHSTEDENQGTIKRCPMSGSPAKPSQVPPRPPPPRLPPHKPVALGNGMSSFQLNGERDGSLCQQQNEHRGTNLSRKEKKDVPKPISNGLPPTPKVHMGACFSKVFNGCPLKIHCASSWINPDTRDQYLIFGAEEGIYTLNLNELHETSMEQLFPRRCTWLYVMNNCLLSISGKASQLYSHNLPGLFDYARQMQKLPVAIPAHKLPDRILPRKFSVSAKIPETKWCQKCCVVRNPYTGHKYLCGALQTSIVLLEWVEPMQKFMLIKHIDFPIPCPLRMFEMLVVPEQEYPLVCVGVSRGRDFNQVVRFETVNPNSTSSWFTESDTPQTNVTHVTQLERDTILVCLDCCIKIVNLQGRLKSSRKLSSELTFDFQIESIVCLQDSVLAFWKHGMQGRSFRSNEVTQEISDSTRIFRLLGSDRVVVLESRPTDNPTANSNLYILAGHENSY", "details": "kinase MAP4K3 (Entrez MAP4K3)", "summary_of_the_method": "as §1"}, "[5]": {"molecular_target": "T5, 384 kinases from the human genome (Homo sapiens, UniProt Q13131)", "T5 construct": "purchased Eurofin/DiscoverX", "details": "kinase AMPK-alpha1 (Entrez PRKAA1)", "summary_of_the_method": "as §1"}, "[6]": {"molecular_target": "T6, 384 kinases from the human genome (Homo sapiens, UniProt Q16584)", "T6 construct": "purchased Eurofin/DiscoverX", "details": "kinase MLK3 (Entrez MAP3K11)", "summary_of_the_method": "as §1"}, "[7]": {"molecular_target": "T7, 384 kinases from the human genome (Homo sapiens, UniProt Q9H2G2)", "T7 construct": "purchased Eurofin/DiscoverX", "details": "kinase SLK (Entrez SLK)", "summary_of_the_method": "as §1"}, "[8]": {"molecular_target": "T8, 384 kinases from the human genome (Homo sapiens, UniProt Q96BR1)", "T8 construct": "purchased Eurofin/DiscoverX", "T8 sequence (Q96BR1 whole entry)": "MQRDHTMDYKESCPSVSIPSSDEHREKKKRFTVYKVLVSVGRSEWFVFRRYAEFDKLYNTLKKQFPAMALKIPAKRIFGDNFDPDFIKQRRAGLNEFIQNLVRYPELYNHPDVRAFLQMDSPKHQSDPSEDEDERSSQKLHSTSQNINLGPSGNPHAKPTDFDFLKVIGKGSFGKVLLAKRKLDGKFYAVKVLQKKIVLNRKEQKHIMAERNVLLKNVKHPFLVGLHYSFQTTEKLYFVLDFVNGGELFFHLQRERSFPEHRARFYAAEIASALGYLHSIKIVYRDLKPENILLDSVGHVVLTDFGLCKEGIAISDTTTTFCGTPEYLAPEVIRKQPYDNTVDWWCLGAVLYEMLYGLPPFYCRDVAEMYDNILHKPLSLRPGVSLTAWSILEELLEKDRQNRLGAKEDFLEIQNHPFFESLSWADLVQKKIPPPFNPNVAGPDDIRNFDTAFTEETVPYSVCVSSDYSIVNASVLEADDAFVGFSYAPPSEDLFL", "details": "kinase SGK3 (Entrez SGK3)", "summary_of_the_method": "as §1"}, "[9]": {"molecular_target": "T9, 384 kinases from the human genome (Homo sapiens, UniProt O00444)", "T9 construct": "purchased Eurofin/DiscoverX", "details": "kinase PLK4 (Entrez PLK4)", "summary_of_the_method": "as §1"}, "[10]": {"molecular_target": "T10, 384 kinases from the human genome (Homo sapiens, UniProt P42338)", "T10 construct": "purchased Eurofin/DiscoverX", "T10 sequence (P42338 whole entry)": "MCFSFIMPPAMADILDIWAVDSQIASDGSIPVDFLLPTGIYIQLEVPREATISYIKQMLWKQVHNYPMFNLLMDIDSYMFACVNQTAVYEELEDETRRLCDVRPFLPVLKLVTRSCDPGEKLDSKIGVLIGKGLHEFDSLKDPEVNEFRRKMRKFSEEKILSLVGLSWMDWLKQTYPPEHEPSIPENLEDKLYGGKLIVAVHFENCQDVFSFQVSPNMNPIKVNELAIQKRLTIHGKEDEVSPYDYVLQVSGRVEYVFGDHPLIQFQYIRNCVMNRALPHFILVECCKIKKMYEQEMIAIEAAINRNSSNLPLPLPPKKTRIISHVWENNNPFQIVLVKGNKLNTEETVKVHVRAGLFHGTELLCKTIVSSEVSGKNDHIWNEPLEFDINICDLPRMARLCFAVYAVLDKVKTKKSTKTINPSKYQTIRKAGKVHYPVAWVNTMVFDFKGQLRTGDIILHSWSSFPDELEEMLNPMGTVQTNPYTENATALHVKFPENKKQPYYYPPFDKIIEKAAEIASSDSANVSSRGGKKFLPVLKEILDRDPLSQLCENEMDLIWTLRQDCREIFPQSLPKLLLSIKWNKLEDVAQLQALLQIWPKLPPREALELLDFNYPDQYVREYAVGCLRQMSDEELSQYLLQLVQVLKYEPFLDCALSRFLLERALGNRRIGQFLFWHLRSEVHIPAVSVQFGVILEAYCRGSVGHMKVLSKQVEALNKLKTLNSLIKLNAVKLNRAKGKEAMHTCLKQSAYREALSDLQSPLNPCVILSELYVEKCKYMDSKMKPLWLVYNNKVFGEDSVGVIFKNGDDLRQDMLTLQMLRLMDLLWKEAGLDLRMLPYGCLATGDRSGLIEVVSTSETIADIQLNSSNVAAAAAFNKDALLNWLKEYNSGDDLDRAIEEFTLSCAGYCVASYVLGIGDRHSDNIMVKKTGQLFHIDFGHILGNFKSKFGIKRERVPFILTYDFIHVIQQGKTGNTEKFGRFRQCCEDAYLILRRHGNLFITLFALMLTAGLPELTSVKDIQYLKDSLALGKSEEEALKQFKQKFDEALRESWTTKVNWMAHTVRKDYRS", "details": "kinase PIK3CB (Entrez PIK3CB)", "summary_of_the_method": "as §1"}, "[11]": {"molecular_target": "T11, 384 kinases from the human genome (Homo sapiens, UniProt P16591)", "T11 construct": "purchased Eurofin/DiscoverX", "details": "kinase FER (Entrez FER)", "summary_of_the_method": "as §1"}, "[12]": {"molecular_target": "T12, 384 kinases from the human genome (Homo sapiens, UniProt Q8IY84)", "T12 construct": "purchased Eurofin/DiscoverX", "T12 sequence (Q8IY84 whole entry)": "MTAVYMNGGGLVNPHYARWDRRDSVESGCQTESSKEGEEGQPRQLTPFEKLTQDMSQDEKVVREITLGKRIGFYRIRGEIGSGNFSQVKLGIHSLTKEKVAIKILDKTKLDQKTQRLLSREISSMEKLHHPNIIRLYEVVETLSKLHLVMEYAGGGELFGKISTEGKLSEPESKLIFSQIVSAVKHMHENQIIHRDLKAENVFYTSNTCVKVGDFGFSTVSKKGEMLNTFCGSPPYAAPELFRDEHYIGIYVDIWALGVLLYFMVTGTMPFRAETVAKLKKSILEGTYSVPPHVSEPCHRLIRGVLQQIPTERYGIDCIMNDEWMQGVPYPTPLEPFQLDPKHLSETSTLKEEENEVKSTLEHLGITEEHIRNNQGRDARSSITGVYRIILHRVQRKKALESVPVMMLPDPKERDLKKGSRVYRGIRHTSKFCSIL", "details": "kinase NIM1 (Entrez MGC42105)", "summary_of_the_method": "as §1"}, "[13]": {"molecular_target": "T13, 384 kinases from the human genome (Homo sapiens, UniProt Q9UEW8)", "T13 construct": "purchased Eurofin/DiscoverX", "details": "kinase STK39 (Entrez STK39)", "summary_of_the_method": "as §1"}, "[14]": {"molecular_target": "T14, 384 kinases from the human genome (Homo sapiens, UniProt Q56UN5)", "T14 construct": "purchased Eurofin/DiscoverX", "details": "kinase YSK4 (Entrez MAP3K19)", "summary_of_the_method": "as §1"}, "[15]": {"molecular_target": "T15, 384 kinases from the human genome (Homo sapiens, UniProt O43293)", "T15 construct": "purchased Eurofin/DiscoverX", "T15 sequence (O43293 whole entry)": "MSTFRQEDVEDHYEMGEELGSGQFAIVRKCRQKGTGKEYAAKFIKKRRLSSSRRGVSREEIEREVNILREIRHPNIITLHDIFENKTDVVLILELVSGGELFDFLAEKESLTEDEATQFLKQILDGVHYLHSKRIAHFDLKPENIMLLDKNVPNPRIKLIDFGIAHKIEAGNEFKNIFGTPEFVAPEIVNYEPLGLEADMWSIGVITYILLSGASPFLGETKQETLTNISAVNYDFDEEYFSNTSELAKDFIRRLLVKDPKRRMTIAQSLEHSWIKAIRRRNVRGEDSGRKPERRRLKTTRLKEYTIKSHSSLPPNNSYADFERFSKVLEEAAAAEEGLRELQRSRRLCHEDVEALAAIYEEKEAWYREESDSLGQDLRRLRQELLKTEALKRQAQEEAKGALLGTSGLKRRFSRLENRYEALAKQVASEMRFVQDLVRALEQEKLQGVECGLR", "details": "kinase DAPK3 (Entrez DAPK3)", "summary_of_the_method": "as §1"}, "[16]": {"molecular_target": "T16, 384 kinases from the human genome (Homo sapiens, UniProt P51451)", "T16 construct": "purchased Eurofin/DiscoverX", "details": "kinase BLK (Entrez BLK)", "summary_of_the_method": "as §1"}, "[17]": {"molecular_target": "T17, 384 kinases from the human genome (Homo sapiens, UniProt Q9H0K1)", "T17 construct": "purchased Eurofin/DiscoverX", "details": "kinase SIK2 (Entrez SIK2)", "summary_of_the_method": "as §1"}, "[18]": {"molecular_target": "T18, 384 kinases from the human genome (Homo sapiens, UniProt Q9H2K8)", "T18 construct": "purchased Eurofin/DiscoverX", "details": "kinase TAOK3 (Entrez TAOK3)", "summary_of_the_method": "as §1"}, "[19]": {"molecular_target": "T19, 384 kinases from the human genome (Homo sapiens, UniProt Q9UEE5)", "T19 construct": "purchased Eurofin/DiscoverX", "details": "kinase DRAK1 (Entrez STK17A)", "summary_of_the_method": "as §1"}, "[20]": {"molecular_target": "T20, 384 kinases from the human genome (Homo sapiens, UniProt Q99683)", "T20 construct": "purchased Eurofin/DiscoverX", "details": "kinase ASK1 (Entrez MAP3K5)", "summary_of_the_method": "as §1"}, "[21]": {"molecular_target": "T21, 384 kinases from the human genome (Homo sapiens, UniProt Q13976)", "T21 construct": "purchased Eurofin/DiscoverX", "details": "kinase PRKG1 (Entrez PRKG1)", "summary_of_the_method": "as §1"}, "[22]": {"molecular_target": "T22, 384 kinases from the human genome (Homo sapiens, UniProt P31751)", "T22 construct": "purchased Eurofin/DiscoverX", "details": "kinase AKT2 (Entrez AKT2)", "summary_of_the_method": "as §1"}, "[23]": {"molecular_target": "T23, 384 kinases from the human genome (Homo sapiens, UniProt Q9Y243)", "T23 construct": "purchased Eurofin/DiscoverX", "details": "kinase AKT3 (Entrez AKT3)", "summary_of_the_method": "as §1"}, "[24]": {"molecular_target": "T24, 384 kinases from the human genome (Homo sapiens, UniProt P51956)", "T24 construct": "purchased Eurofin/DiscoverX", "details": "kinase NEK3 (Entrez NEK3)", "summary_of_the_method": "as §1"}, "[25]": {"molecular_target": "T25, 384 kinases from the human genome (Homo sapiens, UniProt Q9BQI3)", "T25 construct": "purchased Eurofin/DiscoverX", "details": "kinase EIF2AK1 (Entrez EIF2AK1)", "summary_of_the_method": "as §1"}, "[26]": {"molecular_target": "T26, 384 kinases from the human genome (Homo sapiens, UniProt Q15303)", "T26 construct": "purchased Eurofin/DiscoverX", "details": "kinase ERBB4 (Entrez ERBB4)", "summary_of_the_method": "as §1"}},
  "data": [
    {"smiles": "CC(C)C(=O)N1CCN(c2ccc(NC(=O)c3cc4ccccc4o3)cc2Cl)CC1", "note": "[Compound 21]", "values": [
      {"measurement": "Percent Control", "setting": "[1]", "result": 100, "unit": "%"},
      {"measurement": "Percent Control", "setting": "[2]", "result": 66, "unit": "%"},
      {"measurement": "Percent Control", "setting": "[3]", "result": 100, "unit": "%"},
      {"measurement": "Percent Control", "setting": "[4]", "result": 78, "unit": "%"},
      {"measurement": "Percent Control", "setting": "[5]", "result": 99, "unit": "%"},
      {"measurement": "Percent Control", "setting": "[6]", "result": 93, "unit": "%"},
      {"measurement": "Percent Control", "setting": "[7]", "result": 100, "unit": "%"},
      {"measurement": "Percent Control", "setting": "[8]", "result": 91, "unit": "%"},
      {"measurement": "Percent Control", "setting": "[9]", "result": 89, "unit": "%"},
      {"measurement": "Percent Control", "setting": "[10]", "result": 99, "unit": "%"},
      {"measurement": "Percent Control", "setting": "[11]", "result": 90, "unit": "%"},
      {"measurement": "Percent Control", "setting": "[12]", "result": 77, "unit": "%"},
      {"measurement": "Percent Control", "setting": "[13]", "result": 100, "unit": "%"},
      {"measurement": "Percent Control", "setting": "[14]", "result": 98, "unit": "%"},
      {"measurement": "Percent Control", "setting": "[15]", "result": 100, "unit": "%"},
      {"measurement": "Percent Control", "setting": "[16]", "result": 78, "unit": "%"},
      {"measurement": "Percent Control", "setting": "[17]", "result": 77, "unit": "%"},
      {"measurement": "Percent Control", "setting": "[18]", "result": 100, "unit": "%"},
      {"measurement": "Percent Control", "setting": "[19]", "result": 93, "unit": "%"},
      {"measurement": "Percent Control", "setting": "[20]", "result": 79, "unit": "%"},
      {"measurement": "Percent Control", "setting": "[21]", "result": 96, "unit": "%"},
      {"measurement": "Percent Control", "setting": "[22]", "result": 100, "unit": "%"},
      {"measurement": "Percent Control", "setting": "[23]", "result": 100, "unit": "%"},
      {"measurement": "Percent Control", "setting": "[24]", "result": 100, "unit": "%"},
      {"measurement": "Percent Control", "setting": "[25]", "result": 98, "unit": "%"},
      {"measurement": "Percent Control", "setting": "[26]", "result": 91, "unit": "%"}
    ]}
  ]
}
